Assay results reported in patent US20250195521A1 (Revolution Medicines, Inc., priority 2020, published 2025).

Experiments:
[1] = system: NCI-H358 cells (K-Ras G12C); assay: CellTiter-Glo cell viability, NCI-H358; type: cell-based, human; conditions: Homo sapiens, NCI-H358, 120 h, K-Ras G12C, 5-day treatment; read-out: H358 Cell Viability IC50
Method in brief: (§1)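 Cells seeded, compound dispensed straight into wells, 5-day exposure. Plates brought to room temperature ~30 min, CellTiter-Glo luminescence measured. Normalized to DMSO (%), 4-parameter logistic fit.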

[2] = system: Capan-1 cells (K-Ras G12V); assay: CellTiter-Glo cell viability, Capan-1; type: cell-based, human; conditions: Homo sapiens, CAPAN-1, 120 h, K-Ras G12V, 5-day treatment; read-out: Capan-1 Cell Viability IC50
Method in brief: as §1

KRAS G12C = KRAS G12C (Homo sapiens (Human), UniProt P01116+P62937, G12C); assay: Ras-Raf disruption/FRET/MOA assay (BRAF RBD, Cyclophilin A); type: biochemical; conditions: read-out: KRAS G12C FRET IC50
Sequence of KRAS G12C (P01116-2 other isoform, or with tags, fused parts or gaps G12C): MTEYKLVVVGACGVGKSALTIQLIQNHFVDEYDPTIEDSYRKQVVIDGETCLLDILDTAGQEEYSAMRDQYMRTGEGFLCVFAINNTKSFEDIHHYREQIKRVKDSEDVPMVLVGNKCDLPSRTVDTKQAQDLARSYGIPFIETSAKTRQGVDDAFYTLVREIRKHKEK
Sequence of KRAS G12C (P62937 whole entry): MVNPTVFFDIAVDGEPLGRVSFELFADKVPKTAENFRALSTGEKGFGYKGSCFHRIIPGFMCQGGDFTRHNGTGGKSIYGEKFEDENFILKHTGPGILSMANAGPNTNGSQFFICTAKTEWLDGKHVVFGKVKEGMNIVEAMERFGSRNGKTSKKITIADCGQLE
Method in brief: (§2)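 25 μM tagless Cyclophilin A, 12.5 nM His6-Ras-GMPPNP and 50 nM GST-BRAF RBD in HEPES pH 7.3 buffer with 5 mM MgCl2, with compound (10-point 3-fold series from 30 μM final) for 3 h at 25 °C. Anti-His Eu and anti-GST APC then added for 1.5 h. IC50 from TR-FRET ratio decrease versus DMSO.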

KRAS G12D = KRAS G12D (Homo sapiens (Human), UniProt P01116+P62937, G12D); assay: as above; type: biochemical; conditions: read-out: KRAS G12D FRET IC50
Sequence of KRAS G12D (P01116 other isoform, or with tags, fused parts or gaps G12D): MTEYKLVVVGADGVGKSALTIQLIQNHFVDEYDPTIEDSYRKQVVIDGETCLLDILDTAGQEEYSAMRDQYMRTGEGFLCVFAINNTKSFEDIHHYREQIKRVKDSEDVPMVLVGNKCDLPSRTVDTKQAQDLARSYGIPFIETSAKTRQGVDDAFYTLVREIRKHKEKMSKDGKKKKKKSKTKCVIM
Sequence of KRAS G12D (P62937 whole entry): as the sequence (P62937 whole entry) above
Method in brief: as §2

KRAS G12S = KRAS G12S (Homo sapiens (Human), UniProt P01116+P62937, G12S); assay: as above; type: biochemical; conditions: read-out: KRAS G12S FRET IC50
Sequence of KRAS G12S (P01116 other isoform, or with tags, fused parts or gaps G12S): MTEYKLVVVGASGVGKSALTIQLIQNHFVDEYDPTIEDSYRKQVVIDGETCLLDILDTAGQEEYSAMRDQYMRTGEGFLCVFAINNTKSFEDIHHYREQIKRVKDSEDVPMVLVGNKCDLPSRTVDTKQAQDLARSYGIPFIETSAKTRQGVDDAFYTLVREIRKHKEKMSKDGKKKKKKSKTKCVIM
Sequence of KRAS G12S (P62937 whole entry): as the sequence (P62937 whole entry) above
Method in brief: as §2

KRAS G12V = KRAS G12V (Homo sapiens (Human), UniProt P01116+P62937, G12V); assay: as above; type: biochemical; conditions: read-out: KRAS G12V FRET IC50
Sequence of KRAS G12V (P01116 other isoform, or with tags, fused parts or gaps G12V): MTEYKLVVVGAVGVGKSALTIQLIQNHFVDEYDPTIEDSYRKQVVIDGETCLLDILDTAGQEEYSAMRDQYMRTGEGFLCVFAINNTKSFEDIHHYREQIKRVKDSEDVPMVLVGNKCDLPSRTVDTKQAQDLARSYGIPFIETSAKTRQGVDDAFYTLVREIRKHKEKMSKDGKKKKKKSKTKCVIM
Sequence of KRAS G12V (P62937 whole entry): as the sequence (P62937 whole entry) above
Method in brief: as §2

KRAS G13C = KRAS G13C (Homo sapiens (Human), UniProt P01116+P62937, G13C); assay: as above; type: biochemical; conditions: read-out: KRAS G13C FRET IC50
Sequence of KRAS G13C (P01116 other isoform, or with tags, fused parts or gaps G13C): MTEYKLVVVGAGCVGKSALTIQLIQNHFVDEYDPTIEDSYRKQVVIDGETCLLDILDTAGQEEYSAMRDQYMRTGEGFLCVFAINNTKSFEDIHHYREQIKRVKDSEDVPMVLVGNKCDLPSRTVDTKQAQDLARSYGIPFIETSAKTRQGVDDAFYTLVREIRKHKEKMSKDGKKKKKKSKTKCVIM
Sequence of KRAS G13C (P62937 whole entry): as the sequence (P62937 whole entry) above
Method in brief: as §2

KRAS G13D = KRAS G13D (Homo sapiens (Human), UniProt P01116+P62937, G13D); assay: as above; type: biochemical; conditions: read-out: KRAS G13D FRET data IC50
Sequence of KRAS G13D (P01116 other isoform, or with tags, fused parts or gaps G13D): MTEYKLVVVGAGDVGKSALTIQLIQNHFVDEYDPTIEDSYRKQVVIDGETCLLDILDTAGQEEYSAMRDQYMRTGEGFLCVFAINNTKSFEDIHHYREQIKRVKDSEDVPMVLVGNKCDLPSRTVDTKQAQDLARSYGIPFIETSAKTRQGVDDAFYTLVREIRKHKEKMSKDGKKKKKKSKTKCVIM
Sequence of KRAS G13D (P62937 whole entry): as the sequence (P62937 whole entry) above
Method in brief: as §2

KRAS Q61H = KRAS Q61H (Homo sapiens (Human), UniProt P01116+P62937, Q61H); assay: as above; type: biochemical
Sequence of KRAS Q61H (P01116 other isoform, or with tags, fused parts or gaps Q61H): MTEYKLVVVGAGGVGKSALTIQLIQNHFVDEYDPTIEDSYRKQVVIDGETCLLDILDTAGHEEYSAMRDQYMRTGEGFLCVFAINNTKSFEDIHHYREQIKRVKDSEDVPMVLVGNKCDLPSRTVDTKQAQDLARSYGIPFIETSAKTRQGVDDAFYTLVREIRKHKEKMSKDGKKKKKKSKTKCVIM
Sequence of KRAS Q61H (P62937 whole entry): as the sequence (P62937 whole entry) above
Method in brief: as §2

KRAS WT = KRAS WT (Homo sapiens (Human), UniProt P01116+P62937); assay: as above; type: biochemical; conditions: read-out: KRAS WT FRET data IC50
Sequence of KRAS WT (P01116 other isoform, or with tags, fused parts or gaps): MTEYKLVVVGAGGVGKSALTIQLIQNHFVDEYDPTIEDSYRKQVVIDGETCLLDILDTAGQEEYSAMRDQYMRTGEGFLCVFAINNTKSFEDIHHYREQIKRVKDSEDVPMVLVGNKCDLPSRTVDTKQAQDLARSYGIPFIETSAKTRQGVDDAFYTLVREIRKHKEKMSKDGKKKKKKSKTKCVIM
Sequence of KRAS WT (P62937 whole entry): as the sequence (P62937 whole entry) above
Method in brief: as §2

NRAS G12C = NRAS G12C (Homo sapiens (Human), UniProt P01111+P62937, G12C); assay: as above; type: biochemical; conditions: read-out: NRAS G12C FRET data IC50
Sequence of NRAS G12C (P01111 whole entry G12C): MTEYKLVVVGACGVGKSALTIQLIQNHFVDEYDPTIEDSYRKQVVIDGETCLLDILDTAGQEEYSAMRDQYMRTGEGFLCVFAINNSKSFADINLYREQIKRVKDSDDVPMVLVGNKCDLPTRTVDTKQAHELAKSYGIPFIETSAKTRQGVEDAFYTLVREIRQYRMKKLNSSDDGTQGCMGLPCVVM
Sequence of NRAS G12C (P62937 whole entry): as the sequence (P62937 whole entry) above
Method in brief: (§3)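 TR-FRET readout: anti-His Eu-W1024 (10 nM) and anti-GST allophycocyanin (50 nM) added after 3 h, 25° C compound incubation, then 1.5 h more. Decrease in FRET ratio versus DMSO wells marks Ras:RAF disruption; IC50 reported.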

NRAS Q61K = NRAS Q61K (Homo sapiens (Human), UniProt P01111+P62937, Q61K); assay: as above; type: biochemical
Sequence of NRAS Q61K (P01111 whole entry Q61K): as the sequence (P01111 whole entry G12C) above, with C12G, Q61K counted along it
Sequence of NRAS Q61K (P62937 whole entry): as the sequence (P62937 whole entry) above
Method in brief: as §3

NRAS Q61R = NRAS Q61R (Homo sapiens (Human), UniProt P01111+P62937, Q61R); assay: as above; type: biochemical
Sequence of NRAS Q61R (P01111 whole entry Q61R): as the sequence (P01111 whole entry G12C) above, with C12G, Q61R counted along it
Sequence of NRAS Q61R (P62937 whole entry): as the sequence (P62937 whole entry) above
Method in brief: as §3

NRAS WT = NRAS WT (Homo sapiens (Human), UniProt P01111+P62937); assay: as above; type: biochemical
Sequence of NRAS WT (P01111 whole entry): as the sequence (P01111 whole entry G12C) above, with C12G counted along it
Sequence of NRAS WT (P62937 whole entry): as the sequence (P62937 whole entry) above
Method in brief: as §3

[3] = system: K-Ras G12C (NCI-H358 cells); assay: Potency assay: pERK in NCI-H358 cells; type: cell-based, human; conditions: Homo sapiens; NCI-H358 cells, 4 hours; read-out: pERK EC50 (H358 KRAS G12C)
Method in brief: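 Cells plated the day before were exposed for 4 h at 37° C, 5% CO2 to a 10-point, 3-fold DMSO dilution series (10 mM top stock), in duplicate. Phospho-ERK was read by AlphaLISA SureFire Ultra or by In-Cell Western with DRAQ5 DNA stain, and IC50 came from a 4-parameter sigmoidal fit.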

| Compound | IC50 [1] | IC50 [2] | IC50 (KRAS G12C) | IC50 (KRAS G12D) | IC50 (KRAS G12S) | IC50 (KRAS G12V) | IC50 (KRAS G13C) | IC50 (KRAS G13D) | IC50 (KRAS Q61H) | IC50 (KRAS WT) | IC50 (NRAS G12C) | IC50 (NRAS Q61K) | IC50 (NRAS Q61R) | IC50 (NRAS WT) | EC50 [3] |
| --- | --- | --- | --- | --- | --- | --- | --- | --- | --- | --- | --- | --- | --- | --- | --- |
| CCn1c(-c2cccnc2[C@H](C)OC)c2c3cc(ccc31)-c1csc(n1)C[C@H](NC(=O)[C@H](C(C)C)N(C)C(=O)[C@@H]1[C@@H]3CN(C)C[C@@H]31)C(=O)N1CCC[C@H](N1)C(=O)OCC(C)(C)C2 [Compound A447] | 100 to 1000 nM | 100 to 1000 nM | 100 to 1000 nM | 100 to 1000 nM | 100 to 1000 nM | 1000 to 10000 nM | 100 to 1000 nM | 100 to 1000 nM | 100 to 1000 nM | 100 to 1000 nM | 100 to 1000 nM | 100 to 1000 nM | 1000 to 10000 nM | 100 to 1000 nM |  |
| CCn1c(-c2cccnc2[C@H](C)OC)c2c3cc(ccc31)-c1csc(n1)C[C@H](NC(=O)[C@H](C(C)C)N(C)C(=O)N1CC3(CCCN(C)C3=O)C1)C(=O)N1CCC[C@H](N1)C(=O)OCC(C)(C)C2 [Compound A453] | 1000 to 10000 nM | 1000 to 10000 nM | 100 to 1000 nM | > 10000 nM | 1000 to 10000 nM | 1000 to 10000 nM | 1000 to 10000 nM |  | 100 to 1000 nM | 1000 to 10000 nM | 100 to 1000 nM | 100 to 1000 nM | 100 to 1000 nM | 1000 to 10000 nM |  |
| CCn1c(-c2cccnc2[C@H](C)OC)c2c3cc(ccc31)-c1csc(n1)C[C@H](NC(=O)[C@H](C(C)C)N(C)C(=O)N1CC[C@@H]3CN(C)C[C@@H]31)C(=O)N1CCC[C@H](N1)C(=O)OCC(C)(C)C2 [Compound A470] |  | 100 to 1000 nM | 1000 to 10000 nM | 1000 to 10000 nM | 1000 to 10000 nM | 1000 to 10000 nM | 100 to 1000 nM | 1000 to 10000 nM | 100 to 1000 nM | 1000 to 10000 nM | 1000 to 10000 nM | 1000 to 10000 nM | 1000 to 10000 nM | 1000 to 10000 nM | < 5000 nM |
| CCn1c(-c2cccnc2[C@H](C)OC)c2c3cc(ccc31)-c1csc(n1)C[C@H](NC(=O)[C@H](C(C)C)N(C)C(=O)N1CCOCC13COC3)C(=O)N1CCC[C@H](N1)C(=O)OCC(C)(C)C2 [Compound A474] |  | 10 to 100 nM | 100 to 1000 nM | 1000 to 10000 nM | 100 to 1000 nM | 100 to 1000 nM | 100 to 1000 nM | 1000 to 10000 nM | 10 to 100 nM | 100 to 1000 nM | 100 to 1000 nM | 100 to 1000 nM | 100 to 1000 nM | 100 to 1000 nM | < 5000 nM |
| CCn1c(-c2cccnc2[C@H](C)OC)c2c3cc(ccc31)-c1csc(n1)C[C@H](NC(=O)[C@H](C(C)C)N(C)C(=O)N1CC[C@@]3(CCNC3=O)C1)C(=O)N1CCC[C@H](N1)C(=O)OCC(C)(C)C2 [Compound A480] | 100 to 1000 nM | 100 to 1000 nM | 100 to 1000 nM | 1000 to 10000 nM | 100 to 1000 nM | 100 to 1000 nM | 100 to 1000 nM | 100 to 1000 nM | 10 to 100 nM | 100 to 1000 nM | 100 to 1000 nM | 100 to 1000 nM | 100 to 1000 nM | 100 to 1000 nM |  |
| CCn1c(-c2cc(N3CCN(C)CC3)cnc2[C@H](C)OC)c2c3cc(ccc31)-c1csc(n1)C[C@H](NC(=O)[C@H](C(C)C)N(C)C(=O)[C@@H]1OCC[C@@H]1c1cccnc1)C(=O)N1CCC[C@H](N1)C(=O)OCC(C)(C)C2 [Compound A490] |  | 10 to 100 nM | 100 to 1000 nM | 1000 to 10000 nM | 100 to 1000 nM | 100 to 1000 nM | 100 to 1000 nM | 1000 to 10000 nM | 100 to 1000 nM | 100 to 1000 nM | 100 to 1000 nM | 100 to 1000 nM | 100 to 1000 nM | 100 to 1000 nM | < 5000 nM |
